Reference: US20120258038A1, “USES OF APOPTOTIC CELL-TARGETING PEPTIDES, LABEL SUBSTANCES AND LIPOSOMES CONTAINING A THERAPEUTIC AGENT FOR PREVENTING, TREATING OR THERAPEUTICALLY DIAGNOSING APOPTOSIS-RELATED DISEASES” (Kyungpook National University Industry-Academic Cooperation …, priority 2009, published 2012)

How the values were obtained:
[1] = tested on: etoposide-treated apoptotic cells (A549, H460, HeLa, L132, RAW); experiment: Microscopic observation of binding of the peptide to apoptotic cells; format: cell-based; details: for labeling of etoposide-treated apoptotic cells: etoposide 50 μM; for labeling of etoposide-treated apoptotic cells / labeling of normal cells not treated with etoposide: fluorescence microscopy, fluorescein-labeled peptide 10 μM, alexa 594-labeled annexin V; for labeling of normal cells not treated with etoposide: 4° C., 1 hour
Method: Cells were cultured in a chamber slide (Nalgen Nunc), and treated with etoposide (Sigma) at a concentration of 50 μM for a given period of time to induce apoptosis (A549 and HeLa cells: for 15 hours, H460 cells: 24 hours, L132 cells: 3 hours, and RAW cells: 6 hours). The cells were cultured in RMPI-1640 medium (A549 and H460 cells) or DMEM medium (HeLa, L132 and RAW cells) containing antibiotics (penicillin and streptomycin) and 10% FBS. Meanwhile, all the cells were subcultured every 3 or 4 days. The apoptosis-induced apoptotic cells were washed with PBS, and blocked with 1% BSA at 37° C. for 30 minutes. Then, the cells were reacted with 10 μM of the peptide labeled with fluorescein, at 4° C. for 1 hour. After being washed, the cells were reacted with an annexin V reaction buffer solution containing alexa 594 (fluorescent reagent)-labeled annexin V (Molecular Probes) at room temperature for 15 minutes. The cells were washed with PBS, and then fixed with 4% paraformaldehyde for 5 minutes. Then, after counterstaining using the nuclear stain 4′,6-diamidino-2-phenylindole (DAPI), followed by treatment with a mounting solution (Molecular Probes), images of the cells were obtained under a fluorescence microscope (Zeiss).

apoptotic A549 cells = experiment: Competitive inhibition of binding to apoptotic cells by annexin V pre-treatment; format: cell-based, human
Method: In order to further investigate the binding properties of the inventive peptide (ApoPep-1) to apoptotic cells, competitive inhibition by annexin V was measured. For this, first, apoptotic A549 cells were pretreated with annexin V, not labeled with fluorescence, at concentrations of 0, 200 and 1000 μM. Then, after the cells were reacted with fluorescence-labeled annexin V under the same condition as described in Example <2-1>, the binding of the cells was observed under a fluorescence microscope.
Meanwhile, apoptotic A549 cells were pre-treated with annexin V, not labeled with fluorescence, at a concentration of 1000 μM. Then, after the cells were reacted with fluorescence-labeled peptide under the same condition as described in Example <2-1>, the binding of the cells was observed under a fluorescence microscope.

A549 cells = experiment: FACS analysis of binding to apoptotic cells; format: cell-based, human; details: for percentage of cells bound/stained, early stage of apoptosis (fraction Q4) / percentage of cells bound/stained, later stage of apoptosis (fraction Q2): A549 cells treated with 50 μM etoposide for 15 hours, PI co-staining
Method: As another way of confirming the binding of the inventive peptide to apoptotic cells, apoptotic cells were treated with the inventive peptide labeled with fluorescein, and the binding was confirmed through FACS analysis. First, apoptosis was induced by treating A549 cells with 50 μM etoposide for 6 to 15 hours. The apoptotic cells or normal cells were reacted with the inventive ApoPep-1 peptide(5 μM) or a control peptide at the same concentration, labeled with fluorescein, at 4° C. for 1 hour. Meanwhile, the cells were reacted with fluorescein-labeled annexin V at room temperature for 15 minutes. After simultaneously staining the cells with propodium iodide (PI), followed by washing with PBS, FACS analysis was performed using a FACS instrument (Becton Dickinson).

CQRPPR (Apoptotic cell-targeting peptide, ApoPep-1)
labeling of etoposide-treated apoptotic cells [1]: labeling was observed | location of binding compared with annexin V (merged images) ([1]; etoposide-treated apoptotic cells): at the same locations | labeling of normal cells not treated with etoposide [1]: no labeling was observed | binding of the peptide after pre-treatment with annexin V (apoptotic A549 cells; annexin V not labeled with fluorescence, 1000 μM): not inhibited | binding to normal cells (A549 cells; A549 cells not treated with etoposide, 5 μM, fluorescein-labeled): almost nonexistent | percentage of cells bound/stained, early stage of apoptosis (fraction Q4) (A549 cells): 90.3% | percentage of cells bound/stained, later stage of apoptosis (fraction Q2) (A549 cells): 7.2%

B1: annexin V: protein having a molecular weight of 36 kDa, binds to phosphatidylserine with strong affinity (protein, UniProt P08758 2-320, looked up)
Annexin A5: AQVLRGTVTDFPGFDERADAETLRKAMKGLGTDEESILTLLTSRSNAQRQEISAAFKTLFGRDLLDDLKSELTGKFEKLIVALMKPSRLYDAYELKHALKGAGTNEKVLTEIIASRTPEELRAIKQVYEEEYGSSLEDDVVGDTSGYYQRMLVVLLQANRDPDAGIDEAQVEQDAQALFQAGELKWGTDEEKFITIFGTRSVSHLRKVFDKYMTISGFQIEETIDRETSGNLEQLLLAVVKSIRSIPAYLAETLYYAMKGAGTDDHTLIRVMVSRSEIDLFNIRKEFRKNFATSLYSMIKGDTSGDYKKALLLLCGEDD
labeling of etoposide-treated apoptotic cells [1]: labeling was observed | labeling of normal cells not treated with etoposide [1]: no labeling was observed | fluorescence of fluorescence-labeled annexin V after pre-treatment with annexin V not labeled with fluorescence (apoptotic A549 cells; pre-treatment 0, 200 and 1000 μM, high concentration): significantly decreased | percentage of cells bound/stained, early stage of apoptosis (fraction Q4) (A549 cells): 64.3% | percentage of cells bound/stained, later stage of apoptosis (fraction Q2) (A549 cells): 9.4%
